Results published in PMC9103244, “Novel Hybrid 1,2,4- and 1,2,3-Triazoles Targeting Mycobacterium Tuberculosis Enoyl Acyl Carrier Protein Reductase (InhA): Design, Synthesis, and Molecular Docking” (International Journal of Molecular Sciences, 2022).
Like-named read-outs stand apart in the source and are kept apart here.

Legend:
M. tuberculosis InhA = target: T1, M. tuberculosis InhA (Mycobacterium tuberculosis, UniProt P9WGR1); assay: InhA enzymatic inhibition assay (NADH oxidation at 340 nm); format: biochemical; conditions: for inhibition at 0.01 µM: compound at 10 nM, read-out: InhA enzyme inhibition percentage at 10 nM
T1 construct: made in house; host or cells: E. coli
T1 sequence (P9WGR1 whole entry, looked up): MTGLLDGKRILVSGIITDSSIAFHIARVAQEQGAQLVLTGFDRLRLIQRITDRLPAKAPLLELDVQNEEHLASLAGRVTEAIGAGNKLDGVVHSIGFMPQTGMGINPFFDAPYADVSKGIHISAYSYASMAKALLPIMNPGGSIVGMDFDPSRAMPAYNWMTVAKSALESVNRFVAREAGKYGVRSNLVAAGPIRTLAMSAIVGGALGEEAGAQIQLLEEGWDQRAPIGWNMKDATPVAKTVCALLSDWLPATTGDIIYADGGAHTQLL

[1] = target: mycobacterium tuberculosis InhA enzyme; set-up: method as in doi:10.1016/j.molstruc.2020.129148; conditions: literature lead structures; read-out: IC50 (InhA inhibitors, lead structures); cited from earlier work
[2] = 70 nM InhA, 2 h pre-incubation, pH 6.8, 25 °C, 35 μM trans-2-decenoyl-CoA, 200 μM NADH, read-out: IC50, inhibitory effect against InhA

Structure (SMILES) | IC50 (M. tuberculosis InhA) [nM] | inhibition at 0.01 µM (M. tuberculosis InhA) [%] | melting point [°C] | IC50 (M. tuberculosis InhA; [2]) [nM] | IC50 [1] [nM] | IC50 (M. tuberculosis InhA; read-out: IC50, inhibitory effect against InhA, 70 nM InhA, 2 h pre-incubation, pH 6.8, 25 °C, 35 μM trans-2-decenoyl-CoA, 200 μM NADH) [nM]
O=C(O)c1ccc(-n2cc(CSc3nnc(Cc4ccccc4)n3/N=C/c3ccc(N4CCOCC4)cc3)nn2)cc1 [7e, (E)-4-(4-(((5-benzyl-4-((4-morpholinobenzylidene)amino)-4H-1,2,4-triazol-3-yl)thio)methyl)-1H-1,2,3-triazol-1-yl)benzoic acid] | 0.13 | 100 | 192 |  |  | 
S=c1[nH]nc(Cc2ccccc2)n1/N=C/c1ccc(N2CCOCC2)cc1 [4c, (E)-5-benzyl-4-((4-morpholinobenzylidene)amino)-2,4-dihydro-3H-1,2,4-triazole-3-thione] |  |  |  | 8.16 |  | 
CNC(=O)CN(Cc1ccc(F)cc1)C(=O)C[C@H]1CC[C@@H](NC(=O)c2nnn(Cc3ccccc3)c2C)CC1 [Lead structure B] |  |  |  |  | 57 | 
Sc1nnc(Cc2ccccc2)n1/N=C/c1cccc2c1OCO2 [4b] |  |  | 164 | 9.16 |  | 
O=C(O)c1ccc(-n2cc(CSc3nnc(Cc4ccccc4)n3/N=C/c3cccc4c3OCO4)nn2)cc1 [7c, (E)-4-(4-(((4-((benzo[d][1,3]dioxol-4-ylmethylene)amino)-5-benzyl-4H-1,2,4-triazol-3-yl)thio)methyl)-1H-1,2,3-triazol-1-yl)benzoic acid] | 0.074 | 100 | 188 |  |  | 
CC(=O)c1ccc(-n2cc(CSc3nnc(Cc4ccccc4)n3/N=C/c3cccc4c3OCO4)nn2)cc1 [7d] |  | 100 | 196 |  |  | 0.18
C#CCSc1nnc(Cc2ccccc2)n1/N=C/c1cccs1 [5a, (E)-N-(3-benzyl-5-(prop-2-yn-1-ylthio)-4H-1,2,4-triazol-4-yl)-1-(thiophen-2-yl)methanimine] |  |  | 98 | 5.61 |  | 
Cc1nc(C)n(CCCNc2ccc(C(=O)Nc3ccc(F)c(Oc4ccccc4)c3)cn2)n1 [Lead structure A] |  |  |  |  | 906 | 
CC(=O)c1ccc(-n2cc(CSc3nnc(Cc4ccccc4)n3/N=C/c3ccc(N4CCOCC4)cc3)nn2)cc1 [7f] |  | 100 | 198 to 200 | 0.25 |  | 
C#CCSc1nnc(Cc2ccccc2)n1/N=C/c1cccc2c1OCO2 [5b, (E)-1-(benzo[d][1,3]dioxol-4-yl)-N-(3-benzyl-5-(prop-2-yn-1-ylthio)-4H-1,2,4-triazol-4-yl)methanimine] |  | 100 | 140 | 0.66 |  | 
O=C(O)c1ccc(-n2cc(CSc3nnc(Cc4ccccc4)n3/N=C/c3cccs3)nn2)cc1 [7a, (E)-4-(4-(((5-benzyl-4-((thiophen-2-ylmethylene)amino)-4H-1,2,4-triazol-3-yl)thio)methyl)-1H-1,2,3-triazol-1-yl)benzoic acid] |  |  | 196 | 6.18 |  | 
C#CCSc1nnc(Cc2ccccc2)n1/N=C/c1ccc(N2CCOCC2)cc1 [5c] |  | 100 | 236 | 0.23 |  | 
CC(=O)c1ccc(-n2cc(CSc3nnc(Cc4ccccc4)n3/N=C/c3cccs3)nn2)cc1 [7b] | 12.5 |  | 196 |  |  | 
Sc1nnc(Cc2ccccc2)n1/N=C/c1cccs1 [4a, 5.-benzyl-4-((thiophen-2-ylmethylene)amino)-2,4-dihydro-3H-1,2,4-triazole-3-thione] |  |  | 184 to 186 | 53.2 |  | 
